Paper PMC5987196 (ACS infectious diseases, 2017)
Where two headings read alike, the source gives them in different places.

Tests used:
[1] = tested on: E. coli carrying blaADC37 encoded in pBC SK (−); assay: MIC broth microdilution with ceftazidime plus BATSI; type: cell-based, Escherichia coli DH10B; conditions: for MIC broth dilution: CAZ MIC with 10 μg/mL compound, CAZ varied from 0 to 128 μg/mL
[2] = tested on: E. coli carrying blaADC37 encoded in pBC SK (−); assay: Disk susceptibility assay; type: cell-based, Escherichia coli DH10B; conditions: 10 μg of BAI and 10 μg of ceftazidime per disk, zone size
[3] = tested on: AB0057 A. baumannii spp. clinical strain; assay: Disk susceptibility assay; type: cell-based; conditions: zone size
ADC-7 [4] = biological target: T1, ADC-7 (Acinetobacter baumannii, UniProt Q6DRA1); assay: Competition kinetics with nitrocefin against ADC-7 β-lactamase; type: biochemical
E. coli AmpC = conditions: class C enzyme lacking Arg340; cited from earlier work
Pseudomonas PDC-3 = conditions: class C enzyme lacking Arg340; cited from earlier work
ADC-7 [5] = biological target: T1, ADC-7; conditions: previously reported value for the lead compound; cited from earlier work
[6] = 10 μg of BAI and 10 μg of sulbactam per disk

| Molecule | MIC broth dilution [1] [µg/mL] | disk assay [2] [mm] | disk assay [3, 6] [mm] | other results |
| --- | --- | --- | --- | --- |
| (1R)-2-(4-idroxycarbamoyl-[1,2,3]triazol-1-yl)-1-(2-thienylacetylamino)ethaneboronic acid [3e] | 2 | 16 | 8 | – |
| CC1(C)[C@H](C(=O)O)N2C(=O)C[C@H]2S1(=O)=O [SUL, sulbactam, reference compound] | – | – | – | disk assay ([3]; SUL alone, 10 μg): SUL 6 mm; disk assay ([3]; SUL alone, 10 μg, listed as sulbactam): 6 mm |
| (1R)-2-(4-carboxamido-[1,2,3]triazol-1-yl)-1-(2-thienylacetylamino)ethaneboronate [3d] | 4 | 18 | 10 | – |
| O=C(Cc1cccs1)N[C@@H](Cn1cc(-c2cccc(C(=O)O)c2)nn1)B(O)O [3c, (1R)-2-[4-(3-carboxyphenyl)-[1,2,3]triazol-1-yl]-1-(2-thienylacetylamino)ethaneboronic acid] | – | 24 | 15 | Ki (ADC-7 [4]): 46 ± 3 nM |
| O=C(Cc1cccs1)N[C@@H](Cc1cccc(C(=O)O)c1)B(O)O [EC04, reference compound] | 2 | 21 | 11 | Ki (E. coli AmpC): 1 nM; Ki (Pseudomonas PDC-3): 220 nM |
| O=C(Cc1cccs1)N[C@@H](Cn1cc(-c2cccc(-c3nn[nH]n3)c2)nn1)B(O)O [3j, (1R)-2-[4-(3-(2H-tetrazol-5-yl)phenyl)-[1,2,3]triazol-1-yl]-1-(2-thienylacetylamino)ethaneboronate] | 8 | 15 | 6 | – |
| O=C(O)Cc1cn(C[C@H](NC(=O)Cc2cccs2)B(O)O)nn1 [3b, (1R)-2-(4-carboxymethyl-[1,2,3]triazol-1-yl)-(2-thienylace-tylamino)ethaneboronic acid] | 2 | 18 | 10 | less activity relative to 3a (ADC-7 [4]; Ki compared with 3a): 3 fold |
| CC(C)(O/N=C(\C(=O)N[C@@H]1C(=O)N2C(C(=O)[O-])=C(C[n+]3ccccc3)CS[C@H]12)c1csc(N)n1)C(=O)O [CAZ, ceftazidime, reference compound] | – | – | – | MIC ([1]; Escherichia coli, read-out: MIC broth dilution): 32 µg/mL |
| O=C(Cc1cccs1)N[C@@H](Cn1cc(-c2nn[nH]n2)nn1)B(O)O [3h, (1R)-2-[4-(2H-tetrazol-5-yl)-[1,2,3]triazol-1-yl]-1-(2-thienylacetylamino)ethaneboronic acid] | – | 23 | 10 | – |
| O=C(Cc1cccs1)N[C@@H](Cn1cc(C(=O)O)nn1)B(O)O [3a, (1R)-2-[4-carboxy-[1,2,3]triazol-1-yl]-1-(2-thienylace-tylamino)ethaneboronic acid] | 1 | 26 | 16 | Ki (ADC-7 [5]): 44 nM |
| O=C(Cc1cccs1)N[C@H](B(O)O)c1cccc(C(=O)O)c1 [SM23, reference compound] | 1 | 25 | 12 | Ki (E. coli AmpC): 1 nM; Ki (Pseudomonas PDC-3): 4 nM |
